According to ChEMBL document CHEMBL5724914, “Linking interpersonal differences in gut microbiota composition and drug biotransformation activity” (2024):

Columns and labels:
[1] = human gut metagenome, 24 h, 2 µM
[2] = human gut metagenome, 24 h, 2 µM; remark: listed apart in the source
[3] = human gut metagenome, 24 h, 2 µM; remark: listed apart in the source
[4] = human gut metagenome, 24 h, 2 µM; remark: listed apart in the source
[5] = human gut metagenome, 24 h, 2 µM; remark: listed apart in the source
[6] = The drug is tested on WLS-098 corresponding to human gut metagenome with ENA study accession number: PRJEB37062 and ENA sample accession number: ERS12561754 for biotransformation under anaerobic condition. The drug concentrations were measured over 9 timepoints collected between 0 and 24 hours of incubation by liquid-chromatography-coupled mass spectrometry (LC–MS); settings: 2 µM
[7] = The drug is tested on WLS-170 corresponding to human gut metagenome with ENA study accession number: PRJEB37062 and ENA sample accession number: ERS12561762 for biotransformation under anaerobic condition. The drug concentrations were measured over 9 timepoints collected between 0 and 24 hours of incubation by liquid-chromatography-coupled mass spectrometry (LC–MS); settings: 2 µM
[8] = The drug is tested on WLS-370 corresponding to human gut metagenome with ENA study accession number: PRJEB37062 and ENA sample accession number: ERS12561793 for biotransformation under anaerobic condition. The drug concentrations were measured over 9 timepoints collected between 0 and 24 hours of incubation by liquid-chromatography-coupled mass spectrometry (LC–MS); settings: 2 µM
[9] = human gut metagenome, 24 h, 2 µM; remark: listed apart in the source
[10] = human gut metagenome, 24 h, 2 µM; remark: listed apart in the source
[11] = human gut metagenome, 24 h, 2 µM; remark: listed apart in the source
[12] = human gut metagenome, 24 h, 2 µM; remark: listed apart in the source
[13] = human gut metagenome, 24 h, 2 µM; remark: listed apart in the source
[14] = The drug is tested on Z-002 corresponding to rabbit gut metagenome with ENA study accession number: PRJEB37062 and ENA sample accession number: ERS12561802 for biotransformation under anaerobic condition. The drug concentrations were measured over 9 timepoints collected between 0 and 24 hours of incubation by liquid-chromatography-coupled mass spectrometry (LC–MS); settings: 2 µM
[15] = The drug is tested on Z-022 corresponding to mouse gut metagenome with ENA study accession number: PRJEB37062 and ENA sample accession number: ERS12561821 for biotransformation under anaerobic condition. The drug concentrations were measured over 9 timepoints collected between 0 and 24 hours of incubation by liquid-chromatography-coupled mass spectrometry (LC–MS); settings: 2 µM
[16] = The drug is tested on Z-007 corresponding to rat gut metagenome with ENA study accession number: PRJEB37062 and ENA sample accession number: ERS12561807 for biotransformation under anaerobic condition. The drug concentrations were measured over 9 timepoints collected between 0 and 24 hours of incubation by liquid-chromatography-coupled mass spectrometry (LC–MS); settings: 2 µM
[17] = The drug is tested on Z-001 corresponding to mouse gut metagenome with ENA study accession number: PRJEB37062 and ENA sample accession number: ERS12561801 for biotransformation under anaerobic condition. The drug concentrations were measured over 9 timepoints collected between 0 and 24 hours of incubation by liquid-chromatography-coupled mass spectrometry (LC–MS); settings: 2 µM
[18] = The drug is tested on Z-023 corresponding to metagenome with ENA study accession number: PRJEB37062 and ENA sample accession number: ERS12561822 for biotransformation under anaerobic condition. The drug concentrations were measured over 9 timepoints collected between 0 and 24 hours of incubation by liquid-chromatography-coupled mass spectrometry (LC–MS); settings: 2 µM
[19] = The drug is tested on Z-005 corresponding to metagenome with ENA study accession number: PRJEB37062 and ENA sample accession number: ERS12561805 for biotransformation under anaerobic condition. The drug concentrations were measured over 9 timepoints collected between 0 and 24 hours of incubation by liquid-chromatography-coupled mass spectrometry (LC–MS); settings: 2 µM
[20] = The drug is tested on Z-026 corresponding to metagenome with ENA study accession number: PRJEB37062 and ENA sample accession number: ERS12561825 for biotransformation under anaerobic condition. The drug concentrations were measured over 9 timepoints collected between 0 and 24 hours of incubation by liquid-chromatography-coupled mass spectrometry (LC–MS); settings: 2 µM
[21] = The drug is tested on Z-011 corresponding to mouse gut metagenome with ENA study accession number: PRJEB37062 and ENA sample accession number: ERS12561811 for biotransformation under anaerobic condition. The drug concentrations were measured over 9 timepoints collected between 0 and 24 hours of incubation by liquid-chromatography-coupled mass spectrometry (LC–MS); settings: 2 µM
[22] = The drug is tested on Z-008 corresponding to metagenome with ENA study accession number: PRJEB37062 and ENA sample accession number: ERS12561808 for biotransformation under anaerobic condition. The drug concentrations were measured over 9 timepoints collected between 0 and 24 hours of incubation by liquid-chromatography-coupled mass spectrometry (LC–MS); settings: 2 µM
[23] = The drug is tested on Z-024 corresponding to pig gut metagenome with ENA study accession number: PRJEB37062 and ENA sample accession number: ERS12561823 for biotransformation under anaerobic condition. The drug concentrations were measured over 9 timepoints collected between 0 and 24 hours of incubation by liquid-chromatography-coupled mass spectrometry (LC–MS); settings: 2 µM
[24] = The drug is tested on Z-009 corresponding to pig gut metagenome with ENA study accession number: PRJEB37062 and ENA sample accession number: ERS12561809 for biotransformation under anaerobic condition. The drug concentrations were measured over 9 timepoints collected between 0 and 24 hours of incubation by liquid-chromatography-coupled mass spectrometry (LC–MS); settings: 2 µM
[25] = The drug is tested on Z-003 corresponding to pig gut metagenome with ENA study accession number: PRJEB37062 and ENA sample accession number: ERS12561803 for biotransformation under anaerobic condition. The drug concentrations were measured over 9 timepoints collected between 0 and 24 hours of incubation by liquid-chromatography-coupled mass spectrometry (LC–MS); settings: 2 µM
[26] = The drug is tested on Z-010 corresponding to metagenome with ENA study accession number: PRJEB37062 and ENA sample accession number: ERS12561810 for biotransformation under anaerobic condition. The drug concentrations were measured over 9 timepoints collected between 0 and 24 hours of incubation by liquid-chromatography-coupled mass spectrometry (LC–MS); settings: 2 µM
[27] = The drug is tested on Z-021 corresponding to metagenome with ENA study accession number: PRJEB37062 and ENA sample accession number: ERS12561820 for biotransformation under anaerobic condition. The drug concentrations were measured over 9 timepoints collected between 0 and 24 hours of incubation by liquid-chromatography-coupled mass spectrometry (LC–MS); settings: 2 µM
[28] = The drug is tested on Z-027 corresponding to metagenome with ENA study accession number: PRJEB37062 and ENA sample accession number: ERS12561826 for biotransformation under anaerobic condition. The drug concentrations were measured over 9 timepoints collected between 0 and 24 hours of incubation by liquid-chromatography-coupled mass spectrometry (LC–MS); settings: 2 µM
[29] = The drug is tested on Z-006 corresponding to mouse gut metagenome with ENA study accession number: PRJEB37062 and ENA sample accession number: ERS12561806 for biotransformation under anaerobic condition. The drug concentrations were measured over 9 timepoints collected between 0 and 24 hours of incubation by liquid-chromatography-coupled mass spectrometry (LC–MS); settings: 2 µM
[30] = The drug is tested on Z-012 corresponding to metagenome with ENA study accession number: PRJEB37062 and ENA sample accession number: ERS12561812 for biotransformation under anaerobic condition. The drug concentrations were measured over 9 timepoints collected between 0 and 24 hours of incubation by liquid-chromatography-coupled mass spectrometry (LC–MS); settings: 2 µM
[31] = The drug is tested on Z-028 corresponding to mouse gut metagenome with ENA study accession number: PRJEB37062 and ENA sample accession number: ERS12561827 for biotransformation under anaerobic condition. The drug concentrations were measured over 9 timepoints collected between 0 and 24 hours of incubation by liquid-chromatography-coupled mass spectrometry (LC–MS); settings: 2 µM
[32] = The drug is tested on Z-004 corresponding to metagenome with ENA study accession number: PRJEB37062 and ENA sample accession number: ERS12561804 for biotransformation under anaerobic condition. The drug concentrations were measured over 9 timepoints collected between 0 and 24 hours of incubation by liquid-chromatography-coupled mass spectrometry (LC–MS); settings: 2 µM
Further: call rule not given here.

CN(C)CCOC(c1ccc(Cl)cc1)c1ccccn1.O=C(O)/C=C\C(=O)O (stereo not given) [CARBINOXAMINE MALEATE]
Bacterial Biotransformation [1]: Compound NOT metabolized | Bacterial Biotransformation [2]: Compound NOT metabolized | Bacterial Biotransformation [3]: Compound metabolized | Bacterial Biotransformation [4]: Compound metabolized | Bacterial Biotransformation [5]: Compound NOT metabolized | Bacterial Biotransformation [6]: Compound NOT metabolized | Bacterial Biotransformation [7]: Compound metabolized | Bacterial Biotransformation [8]: Compound NOT metabolized | Bacterial Biotransformation [9]: Compound NOT metabolized | Bacterial Biotransformation [10]: Compound NOT metabolized | Bacterial Biotransformation [11]: Compound NOT metabolized | Bacterial Biotransformation [12]: Compound NOT metabolized | Bacterial Biotransformation [13]: Compound metabolized

C[C@H]1C[C@H]2[C@@H]3CCC4=CC(=O)C=C[C@]4(C)[C@@]3(F)[C@@H](O)C[C@]2(C)[C@@]1(O)C(=O)CO [BETAMETHASONE]
Bacterial Biotransformation [14]: Compound metabolized | Bacterial Biotransformation [15]: Compound metabolized | Bacterial Biotransformation [16]: Compound NOT metabolized | Bacterial Biotransformation [17]: Compound NOT metabolized | Bacterial Biotransformation [18]: Compound metabolized | Bacterial Biotransformation [19]: Compound NOT metabolized | Bacterial Biotransformation [20]: Compound metabolized | Bacterial Biotransformation [21]: Compound NOT metabolized | Bacterial Biotransformation [22]: Compound NOT metabolized | Bacterial Biotransformation [23]: Compound metabolized | Bacterial Biotransformation [24]: Compound metabolized | Bacterial Biotransformation [25]: Compound metabolized | Bacterial Biotransformation [26]: Compound metabolized | Bacterial Biotransformation [27]: Compound metabolized | Bacterial Biotransformation [28]: Compound NOT metabolized | Bacterial Biotransformation [29]: Compound NOT metabolized | Bacterial Biotransformation [30]: Compound metabolized | Bacterial Biotransformation [31]: Compound NOT metabolized | Bacterial Biotransformation [32]: Compound metabolized

CN1CCN(CCCN2c3ccccc3Sc3ccc(Cl)cc32)CC1.O=S(=O)(O)CCS(=O)(=O)O [PROCHLORPERAZINE EDISYLATE]
Bacterial Biotransformation [14]: Compound NOT metabolized | Bacterial Biotransformation [18]: Compound metabolized | Bacterial Biotransformation [20]: Compound metabolized | Bacterial Biotransformation [22]: Compound NOT metabolized | Bacterial Biotransformation [24]: Compound metabolized | Bacterial Biotransformation [27]: Compound NOT metabolized | Bacterial Biotransformation [29]: Compound NOT metabolized | Bacterial Biotransformation [30]: Compound metabolized
